Test results as given in patent publication US12077503B2, “Substituted cyclic amides and their use as herbicides” (FMC CORPORATION, priority 2015, dated 2024).

Assays:
Format in all cases: in vivo
corn (Zea mays) [1] = assay: Test G Post-Emergence Protocol; details: Zea mays, post-emergence, 312 h, read-out: Corn damage rating; for plant injury at 15.625 g/ha: 15.625 g ai/ha, evaluated after 13 days (100=total damage to plant; 0=no damage to plant); for plant injury at 62.5 g/ha: 62.5 g ai/ha; for plant injury at 62.5 g/ha / plant injury at 250 g/ha: evaluated after 13 days, 100=total damage to plant, 0=no damage to plant; for plant injury at 250 g/ha: 250 g ai/ha
Summary of the method: (§1)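 A glasshouse post-emergence test: 8-day-old plants sprayed at 15.625, 62.5 or 250 g/ha, then grown at 24/16 °C day/night with 14 h light and 65% humidity. Damage rated 13 days later, 0–100.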

[2] = system: giant foxtail (Setaria faberi); assay: Test G Post-Emergence Protocol; details: Setaria faberi, post-emergence, 312 h, read-out: Foxtail, Giant damage rating; for pest or weed control at 15.625 g/ha: 15.625 g ai/ha, evaluated after 13 days (100=total damage to plant; 0=no damage to plant); for pest or weed control at 62.5 g/ha: 62.5 g ai/ha; for pest or weed control at 62.5 g/ha / pest or weed control at 250 g/ha: evaluated after 13 days, 100=total damage to plant, 0=no damage to plant; for pest or weed control at 250 g/ha: 250 g ai/ha
Summary of the method: as §1

[3] = system: velvetleaf (Abutilon theophrasti); assay: Test G Post-Emergence Protocol; details: Abutilon theophrasti, post-emergence, 312 h, read-out: Velvetleaf damage rating; for pest or weed control at 15.625 g/ha: 15.625 g ai/ha, evaluated after 13 days (100=total damage to plant; 0=no damage to plant); for pest or weed control at 62.5 g/ha: 62.5 g ai/ha; for pest or weed control at 62.5 g/ha / pest or weed control at 250 g/ha: evaluated after 13 days, 100=total damage to plant, 0=no damage to plant; for pest or weed control at 250 g/ha: 250 g ai/ha
Summary of the method: as §1

[4] = system: redroot pigweed (Amaranthus retroflexus); assay: Test G Post-Emergence Protocol; details: Amaranthus retroflexus, post-emergence, 312 h, read-out: Pigweed, Redroot damage rating; for pest or weed control at 15.625 g/ha: 15.625 g ai/ha, evaluated after 13 days (100=total damage to plant; 0=no damage to plant); for pest or weed control at 62.5 g/ha: 62.5 g ai/ha; for pest or weed control at 62.5 g/ha / pest or weed control at 250 g/ha: evaluated after 13 days, 100=total damage to plant, 0=no damage to plant; for pest or weed control at 250 g/ha: 250 g ai/ha
Summary of the method: as §1

[5] = system: barnyardgrass (Echinochloa crus-galli); assay: Test G Post-Emergence Protocol; details: Echinochloa crus-galli, post-emergence, 312 h, read-out: Barnyardgrass damage rating; for pest or weed control at 15.625 g/ha: 15.625 g ai/ha, evaluated after 13 days (100=total damage to plant; 0=no damage to plant); for pest or weed control at 62.5 g/ha: 62.5 g ai/ha; for pest or weed control at 62.5 g/ha / pest or weed control at 250 g/ha: evaluated after 13 days, 100=total damage to plant, 0=no damage to plant; for pest or weed control at 250 g/ha: 250 g ai/ha
Summary of the method: as §1

[6] = system: ivy-leaved morning glory (Ipomoea hederacea); assay: Test G Post-Emergence Protocol; details: Ipomoea, post-emergence, 312 h, read-out: Morningglory, Ivy-leaved damage rating; for pest or weed control at 15.625 g/ha: 15.625 g ai/ha, evaluated after 13 days (100=total damage to plant; 0=no damage to plant); for pest or weed control at 62.5 g/ha: 62.5 g ai/ha; for pest or weed control at 62.5 g/ha / pest or weed control at 250 g/ha: evaluated after 13 days, 100=total damage to plant, 0=no damage to plant; for pest or weed control at 250 g/ha: 250 g ai/ha
Summary of the method: as §1

corn (Zea mays) [7] = assay: Test G Pre-Emergence Protocol; details: Zea mays, pre-emergence, 312 h, evaluated after 13 days; for plant injury at 15.625 g/ha: 15.625 g ai/ha; for plant injury at 15.625 g/ha / plant injury at 250 g/ha: read-out: Corn damage rating (100=total damage to plant; 0=no damage to plant); for plant injury at 62.5 g/ha: 62.5 g ai/ha, 100=total damage to plant, 0=no damage to plant, read-out: Corn damage rating; for plant injury at 250 g/ha: 250 g ai/ha
Summary of the method: (§2)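 Glasshouse pre-emergence test: soil-sown seeds, sprayed after 1 d at 15.625, 62.5 or 250 g/ha. Conditions 24/16° C day/night, 14 h light, 65% humidity, watering twice daily. Rating 13 d post-spray (100 = total damage).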

[8] = system: giant foxtail (Setaria faberi); assay: Test G Pre-Emergence Protocol; details: Setaria faberi, pre-emergence, 312 h, evaluated after 13 days; for pest or weed control at 15.625 g/ha: 15.625 g ai/ha; for pest or weed control at 15.625 g/ha / pest or weed control at 250 g/ha: read-out: Foxtail, Giant damage rating (100=total damage to plant; 0=no damage to plant); for pest or weed control at 62.5 g/ha: 62.5 g ai/ha, 100=total damage to plant, 0=no damage to plant, read-out: Foxtail, Giant damage rating; for pest or weed control at 250 g/ha: 250 g ai/ha
Summary of the method: as §2

[9] = system: velvetleaf (Abutilon theophrasti); assay: Test G Pre-Emergence Protocol; details: Abutilon theophrasti, pre-emergence, 312 h, evaluated after 13 days; for pest or weed control at 15.625 g/ha: 15.625 g ai/ha; for pest or weed control at 15.625 g/ha / pest or weed control at 250 g/ha: read-out: Velvetleaf damage rating (100=total damage to plant; 0=no damage to plant); for pest or weed control at 62.5 g/ha: 62.5 g ai/ha, 100=total damage to plant, 0=no damage to plant, read-out: Velvetleaf damage rating; for pest or weed control at 250 g/ha: 250 g ai/ha
Summary of the method: as §2

[10] = system: redroot pigweed (Amaranthus retroflexus); assay: Test G Pre-Emergence Protocol; details: Amaranthus retroflexus, pre-emergence, 312 h, evaluated after 13 days; for pest or weed control at 15.625 g/ha: 15.625 g ai/ha; for pest or weed control at 15.625 g/ha / pest or weed control at 250 g/ha: read-out: Pigweed, Redroot damage rating (100=total damage to plant; 0=no damage to plant); for pest or weed control at 62.5 g/ha: 62.5 g ai/ha, 100=total damage to plant, 0=no damage to plant, read-out: Pigweed, Redroot damage rating; for pest or weed control at 250 g/ha: 250 g ai/ha
Summary of the method: as §2

[11] = system: barnyardgrass (Echinochloa crus-galli); assay: Test G Pre-Emergence Protocol; details: Echinochloa crus-galli, pre-emergence, 312 h, evaluated after 13 days; for pest or weed control at 15.625 g/ha: 15.625 g ai/ha; for pest or weed control at 15.625 g/ha / pest or weed control at 250 g/ha: read-out: Barnyardgrass damage rating (100=total damage to plant; 0=no damage to plant); for pest or weed control at 62.5 g/ha: 62.5 g ai/ha, 100=total damage to plant, 0=no damage to plant, read-out: Barnyardgrass damage rating; for pest or weed control at 250 g/ha: 250 g ai/ha
Summary of the method: as §2

[12] = system: ivy-leaved morning glory (Ipomoea hederacea); assay: Test G Pre-Emergence Protocol; details: Ipomoea, pre-emergence, 312 h, evaluated after 13 days; for pest or weed control at 15.625 g/ha: 15.625 g ai/ha; for pest or weed control at 15.625 g/ha / pest or weed control at 250 g/ha: read-out: Morningglory, Ivy-leaved damage rating (100=total damage to plant; 0=no damage to plant); for pest or weed control at 62.5 g/ha: 62.5 g ai/ha, 100=total damage to plant, 0=no damage to plant, read-out: Morningglory, Ivy-leaved damage rating; for pest or weed control at 250 g/ha: 250 g ai/ha
Summary of the method: as §2

Structure (SMILES) | plant injury at 15.625 g/ha (corn (Zea mays) [1]) [%] | plant injury at 62.5 g/ha (corn (Zea mays) [1]) [%] | plant injury at 250 g/ha (corn (Zea mays) [1]) [%] | pest or weed control at 15.625 g/ha [2] [%] | pest or weed control at 62.5 g/ha [2] [%] | pest or weed control at 250 g/ha [2] [%] | pest or weed control at 15.625 g/ha [3] [%] | pest or weed control at 62.5 g/ha [3] [%] | pest or weed control at 250 g/ha [3] [%] | pest or weed control at 15.625 g/ha [4] [%] | pest or weed control at 62.5 g/ha [4] [%] | pest or weed control at 250 g/ha [4] [%] | pest or weed control at 15.625 g/ha [5] [%] | pest or weed control at 62.5 g/ha [5] [%] | pest or weed control at 250 g/ha [5] [%] | pest or weed control at 15.625 g/ha [6] [%] | pest or weed control at 62.5 g/ha [6] [%] | pest or weed control at 250 g/ha [6] [%] | plant injury at 15.625 g/ha (corn (Zea mays) [7]) [%] | plant injury at 62.5 g/ha (corn (Zea mays) [7]) [%] | further results
CN1C[C@H](c2cc(C(C)(C)C)ncn2)[C@@H](C(=O)Nc2ccc(F)c(F)c2F)C1=O (racemic) [Compound 1668] | 0 | 0 | 0 | 0 | 0 | 10 | 0 | 0 | 0 | 0 | 0 | 0 | 0 | 0 | 0 | 0 | 0 | 0 | 0 | 0 | plant injury at 250 g/ha (corn (Zea mays) [7]): 0%; pest or weed control at 15.625 g/ha [8]: 0%; pest or weed control at 62.5 g/ha [8]: 0%; pest or weed control at 250 g/ha [8]: 20%; pest or weed control at 15.625 g/ha [9]: 0%; pest or weed control at 62.5 g/ha [9]: 0%; pest or weed control at 250 g/ha [9]: 0%; pest or weed control at 15.625 g/ha [10]: 0%; pest or weed control at 62.5 g/ha [10]: 0%; pest or weed control at 250 g/ha [10]: 0%; pest or weed control at 15.625 g/ha [11]: 0%; pest or weed control at 62.5 g/ha [11]: 0%; pest or weed control at 250 g/ha [11]: 20%; pest or weed control at 15.625 g/ha [12]: 0%; pest or weed control at 62.5 g/ha [12]: 0%
CN1C[C@H](c2ccc(C(F)(F)F)cc2)[C@@H](C(=O)Nc2cccc3c2C(=O)OC3)C1=O (racemic) [Compound 1669] | 10 | 0 | 0 | 30 | 50 | 80 | 0 | 0 | 0 | 0 | 0 | 30 | 0 | 30 | 70 | 0 | 20 | 60 | 0 | 0 | plant injury at 250 g/ha (corn (Zea mays) [7]): 0%; pest or weed control at 15.625 g/ha [8]: 0%; pest or weed control at 62.5 g/ha [8]: 20%; pest or weed control at 250 g/ha [8]: 60%; pest or weed control at 15.625 g/ha [9]: 0%; pest or weed control at 62.5 g/ha [9]: 0%; pest or weed control at 250 g/ha [9]: 10%; pest or weed control at 15.625 g/ha [10]: 0%; pest or weed control at 62.5 g/ha [10]: 10%; pest or weed control at 250 g/ha [10]: 20%; pest or weed control at 15.625 g/ha [11]: 0%; pest or weed control at 62.5 g/ha [11]: 0%; pest or weed control at 250 g/ha [11]: 10%; pest or weed control at 15.625 g/ha [12]: 0%; pest or weed control at 62.5 g/ha [12]: 0%; pest or weed control at 250 g/ha [12]: 10%
CN1C[C@H](c2ccc(C(F)(F)F)cc2)[C@@H](C(=O)Nc2ccc(C(F)(F)F)cn2)C1=O (racemic) [Compound 1672] | 0 | 0 | 10 | 0 | 0 | 0 | 0 | 0 | 0 | 0 | 30 | 40 | 0 | 0 | 0 | 0 | 0 | 0 | 0 | 0 | plant injury at 250 g/ha (corn (Zea mays) [7]): 0%; pest or weed control at 15.625 g/ha [8]: 0%; pest or weed control at 62.5 g/ha [8]: 0%; pest or weed control at 250 g/ha [8]: 0%; pest or weed control at 15.625 g/ha [9]: 0%; pest or weed control at 62.5 g/ha [9]: 0%; pest or weed control at 250 g/ha [9]: 0%; pest or weed control at 15.625 g/ha [10]: 0%; pest or weed control at 62.5 g/ha [10]: 0%; pest or weed control at 250 g/ha [10]: 0%; pest or weed control at 15.625 g/ha [11]: 0%; pest or weed control at 62.5 g/ha [11]: 0%; pest or weed control at 250 g/ha [11]: 0%; pest or weed control at 15.625 g/ha [12]: 0%; pest or weed control at 62.5 g/ha [12]: 0%; pest or weed control at 250 g/ha [12]: 0%
